Data: ChEMBL document CHEMBL1134341, “Calculation of the hydrophobicity of platinum drugs” (J Med Chem, 2001)

What was measured:
[1] = The observed [pt] (mmol/mg protein) value for platinum content in cells; type: ADME
[2] = Octanol-water partition coefficient (logP) value for platinum compounds; type: physicochemical

Substance | Observed [pt] [1] | logP [2]
AMMONIO(DICHLORO)[DI(PROYLCARBONYLOXY)]PLATINUM(CYCLOHEXYL)AMMONIUM | 13.5 mM (mg of protein)-1 | 0.47
AMMONIO(DICHLORO)PLATINUM(CYCLOHEXYL)AMMONIUM | 1.9 mM (mg of protein)-1 | -0.87
AMMONIO(DICHLORO)[DI(BUTYLCARBONYLOXY)]PLATINUM(CYCLOHEXYL)AMMONIUM | 17 mM (mg of protein)-1 | 0.86

Results, then the substance that gave them:

Observed [pt] [1] | logP [2] | Substance
1 mM (mg of protein)-1 | -2.36 | CISPLATIN
3.5 mM (mg of protein)-1 | -0.47 | AMMONIO(DICHLORO)[DI(METHYLCARBONYLOXY)]PLATINUM(CYCLOHEXYL)AMMONIUM
